What was measured:
[1] = tested on: human cardiomyocytes; test: Binding and uptake into human cardiomyocytes; assay type: cell-based; settings: compared with MM-302 and untargeted pegylated liposomal doxorubicin
Excerpt: Additionally, the number of HER2 receptors needed per cell to optimize the binding of MM-302 is approximately 200,000 HER2 receptors per cell. […] The primary mechanism of action of MM-302 is the use of the HER2 protein to selectively deliver doxorubicin into tumor cells that express greater than approximately 200,000 HER2 receptors per cell.

[2] = tested on: BT-474-M3 breast cancer cells; test: BT-474-M3 breast cancer xenograft after failure to respond to T-DM1; assay type: in vivo, mice
Method: The response to the MM-302 and trastuzumab combination after failure to respond to T-DM1 was evaluated in the BT-474-M3 breast cancer xenograft model.
To obtain the BT-474-M3 HER2-overexpressing human breast cancer cell line, BT-474 cells (ATCC® HTB-20™) were passaged twice through mice with the fastest growing two tumors out of ten selected for ex-vivo propagation during each round of selection. Tumors were excised and cultured ex-vivo to obtain the M3 sub-line that was verified by SNP analysis. (see Noble, Cancer Chemother. Pharmacol. 2009 64:741-51).
Mice were inoculated with BT-474-M3 breast cancer cells (15×10^6; into the mammary fat pad). When tumor volumes reached about 360 mm^3, mice were treated with T-DM1 at either 1, 2, or 4 mg/kg (q1w) (white circles). […] At day 55, the mice were switched from T-DM1 treatment to the combination of MM-302 (3 mg/kg, q1w for a total of 3 doses; day 55, 62 and 69) and trastuzumab (at a loading dose of 8 mg/kg followed by 6 mg/kg q1w) (black squares). Changes in tumor volume as well as in mouse weight were monitored twice a week.

For `COc1cccc2c1C(=O)c1c(O)c3c(c(O)c1C2=O)C[C@@](O)(C(=O)CO)C[C@@H]3O[C@H]1C[C@H](N)[C@H](O)[C@H](C)O1` [free doxorubicin, (8S,10S)-10-(4-amino-5 hydroxy-6-methyl-tetrahydro-2H-pyran-2-yloxy)-6,8,11-trihydroxy-8-(2-hydroxyacetyl)-1-methoxy-7,8,9,10-tetrahydrotetracene-5,12-dione], which “level of uptake into human cardiomyocytes” value [1] is on record?
The value was “relatively much higher”.

What does the source list for T-DM1?
tumor response to single agent ([2]; T-DM1 1, 2 or 4 mg/kg q1w): failed to respond; slope of tumor volume curve (linear regression) ([2]; days 0-55, during T-DM1 treatment): positive slope
